According to article PMC6625372 (Frontiers in Oncology, 2019):

Experiments:
IMR-32 = assay: Apoptosis analysis, cleaved PARP immunoblot; format: cell-based; conditions: IMR-32, 100 nM, 24 h
Experimental: (§1) Supplementary Figure 3. Investigation of apoptosis in wild type neuroblastoma cell lines when treated with alectinib. […] Cell lysates were immunoblotted for PARP and ERK (employed as loading control). […] Three independent experiments were performed.

CLB-PE = assay: Apoptosis analysis, cleaved PARP immunoblot; format: cell-based; conditions: 100 nM, 24 h
Experimental: as §1

CLB-GE [1] = assay: Cell cycle analysis (DAPI, NucleoCounter NC-3000); conditions: 24 h, 75 and 150 nM
[2] = system: SK-N-AS (11q-del, K-RasQ61K); assay: Apoptosis analysis, cleaved PARP immunoblot; format: cell-based; conditions: 100 nM, 24 h
CLB-GE [3] = assay: Apoptosis analysis, cleaved PARP immunoblot; format: cell-based; conditions: 100 nM, 24 h
SK-N-AS = assay: Cell cycle analysis (DAPI, NucleoCounter NC-3000); conditions: SK-N-AS control cell line, 24 h, 75 and 150 nM
CLB-BAR [4] = assay: Apoptosis analysis, cleaved PARP immunoblot; format: cell-based; conditions: 100 nM, 24 h
CLB-BAR [5] = assay: Cell cycle analysis (DAPI, NucleoCounter NC-3000); conditions: 24 h, 75 and 150 nM
CLB-BAR cells = assay: Neuroblastoma xenograft mouse model with tumor immunohistochemistry; format: in vivo, BALB/cAnNRj-Foxn1nu mice; conditions: for CD31 (vascularization) in tumors / Ki-67 positivity in tumors, analysis by Ilastik / cleaved caspase positive apoptotic cells in tumors vs vehicle / phospho-histone H3 in tumors vs vehicle / Ki-67 manual analysis, lower median when compared to vehicle (95% CI): day 14; for CD31 (vascularization) in tumors / Ki-67 positivity in tumors, analysis by Ilastik / cleaved caspase positive apoptotic cells in tumors vs vehicle / phospho-histone H3 in tumors vs vehicle: alectinib 20 mg/kg, crizotinib 80 mg/kg once daily; for Ki-67 manual analysis, lower median when compared to vehicle (95% CI): counts normalized against vehicle, 4 independent investigators
Experimental: Results for repotrectinib will be presented elsewhere. […] Tumor volume was measured by calipers every second day and calculated by the following equation: V = (π/6) × L × W^2 (V, volume; L, longest; W, width).
At the end of the experiment xenograft tumors (n = 5 for each tumor category) were harvested and fixed in 4% paraformaldehyde for 72 h. Following fixation, the tumors were imbedded in paraffin blocks and sectioned in […] slices with a manual microtome. Heat-induced epitope retrieval (HIER), using citrate buffer 0.01 M, pH 6, was performed before staining. HIER was achieved through a sequence where citrate buffer, containing the slides, was brought up to boiling, sub-boiled for 5 min following 10 s of intermediate cooling. The sequence was performed three times with cooling (5 min) in between. Following washing in distillated H2O (3 × 5 min), the slides were immerged in 3% H2O2 for 15 min and then washed in tris-buffered saline-Tween 20 (TBST) for 5 min. A hydrophobic pen was used to set a margin encircling the samples on the slides. […] The slides were incubated for 48 h in a cold room after being covered with antibody diluent. […] Additional washing steps in TBST (3 × 5 min) were carried out. […] The slides were counterstained with Mayer's hematoxylin solution (Sigma-Aldrich SLBK8961V), dehydrated and mounted.
Hamamatsu NanoZoomer-SQ Digital slide scanner (C13140-01) with a x20 (NA 0.75) objective was used to obtain digital images of the slides. Slides were randomly blinded to the investigator. For each of the blinded slides, a representative 1 mm^2 area was selected employing NanoZoomer Digital Pathology viewer. The slide-image was cropped, containing the area of interest, and saved, as a TIF-file at × 20 resolution. The saved TIF-files were cropped, using ImageJ (Fiji) ([44]), into merely encompassing the 1 mm^2 area of interest.
The 6–7 images were then uploaded into Ilastik ([45]), an interactive machine-learning toolkit, and used as a learning foundation for the software (see program code, Supplementary Data Sheet 3). Once the software analyzed the learning images, the whole batches were processed in Ilastik. The output was then transferred to ImageJ where a macro (see program code, Supplementary Data Sheet 2) calculated the area of staining. The pixel size acquired from NanoZoomer Digital Pathology viewer was accounted for in the macro. Ki-67 immunohistochemistry was also analyzed manually. […] Ninety five percent confidence intervals for the difference between median were retrieved with GraphPad.
GraphPad Prism 7.0 was used for statistical analysis. A non-parametric test was performed acquiring P-values by applying a Mann-Whitney test.

| Structure (SMILES) | cleaved PARP levels (IMR-32) | cleaved PARP levels (CLB-PE) | cell cycle progression, G1 accumulation (CLB-GE [1]) | cleaved PARP levels [2] | cleaved PARP levels (CLB-GE [3]) | cell cycle progression, G1 accumulation (SK-N-AS) | cleaved PARP levels (CLB-BAR [4]) | cell cycle progression, G1 accumulation (CLB-BAR [5]) | growth of neuroblastoma xenografts (CLB-BAR cells; 20 mg/kg bodyweight once daily, 14 days, vs vehicle) | body weight and side effects during treatment (CLB-BAR cells; 20 mg/kg once daily, 14 days) | xenograft tumor volume compared with vehicle (CLB-BAR cells; 20 mg/kg once daily, day 6 p = 0.0222, day 8 p < 0.0001, day 14 p = 0.0072) | tumor growth inhibition compared with crizotinib (CLB-BAR cells; alectinib 20 mg/kg vs crizotinib 80 mg/kg once daily, 14 days) | CD31 (vascularization) in tumors (CLB-BAR cells) | Ki-67 positivity in tumors, analysis by Ilastik (CLB-BAR cells) | cleaved caspase positive apoptotic cells in tumors vs vehicle (CLB-BAR cells) | phospho-histone H3 in tumors vs vehicle (CLB-BAR cells) | Ki-67 manual analysis, lower median when compared to vehicle (95% CI) (CLB-BAR cells) |
| --- | --- | --- | --- | --- | --- | --- | --- | --- | --- | --- | --- | --- | --- | --- | --- | --- | --- |
| CCc1cc2c(cc1N1CCC(N3CCOCC3)CC1)C(C)(C)c1[nH]c3cc(C#N)ccc3c1C2=O [alectinib] | no difference was observed | no difference was observed | increased G1 accumulation | no difference was observed | significant increase of cleaved PARP levels | not observed | significant increase of cleaved PARP levels | increased G1 accumulation | effectively abrogated growth | No difference in body weight or obvious side effects | significantly reduced | more effective than with crizotinib | significant increase | non-significant decrease | significantly lower | significant decrease | 0.46 (95% CI 0.32–0.52) |
| C[C@@H](Oc1cc(-c2cnn(C3CCNCC3)c2)cnc1N)c1c(Cl)ccc(F)c1Cl [crizotinib] | – | – | – | – | – | – | – | – | – | – | – | – | significant increase | modest, but significant reduction | non-significant decrease | not observed | 0.49 (95% CI 0.47–0.50) |
